Test results from a melting point compilation (Tetko et al.).

Compared with Nc1cccc(N2C(=O)CNC2=O)c1, CCc1ccccc1N1CC(C(=O)O)CC1=O (stereo not given) is lower in melting point: 156 to 158 °C for the first, 99 to 101 °C for the second.

First: Cn1ccnc1SCC(=O)Nc1ccccc1C(=O)O
Second: COc1ccccc1NC(=O)COc1ccc(C(=O)O)cc1OC
The melting point of the first is higher: 203 to 205 °C for the first, 184 to 186 °C for the second.

First: N#Cc1ccc(N2CCOC2=O)nc1
Second: O=C1OCCN1c1cc([N+](=O)[O-])ccc1Cl
The melting point of the first is higher: 186 to 188 °C for the first, 157 to 159 °C for the second.

First: Clc1nc(-c2cccnc2)nc2ccccc12
Second: Clc1nccc2ccn(Cc3ccccc3)c12
The melting point of the first is higher: 180 to 182 °C for the first, 75 to 77 °C for the second.

First: CCc1nnsc1C(=O)O
Second: CCc1sc(C(=O)O)cc1C
The melting point of the first is higher: 125 to 133 °C for the first, 98 to 100 °C for the second.

First: O=C(O)C(Oc1ccc(Cl)cc1Br)c1ccccc1 (stereo not given)
Second: O=C(O)c1ccccc1OCc1ccc(Cl)cc1
The melting point of the first is higher: 135 to 137 °C for the first, 85 to 87 °C for the second.

Compared with NCC(c1cccs1)c1c[nH]c2ccccc12 (stereo not given), O=C(O)Cc1cccc2sccc12 is lower in melting point: 145 to 147 °C for the first, 127 to 129 °C for the second.

First: CSc1ccc(C=CC(=O)O)cc1
Second: CC(=O)N(c1nc(/C=C\C(=O)O)cs1)c1ccccc1F
The melting point of the first is lower: 177 to 179 °C for the first, 195 to 197 °C for the second.

First: Cc1cc2ncc3c(n2n1)C(=O)OCC3
Second: Cc1oc(Cn2cc(Br)cn2)cc1C(=O)O
The melting point of the first is higher: 200 to 202 °C for the first, 159 to 161 °C for the second.

Compared with CCCCCCCCCCCCSc1nc2ccccc2c(=O)n1-c1ccccc1, O=C(O)c1cn(-c2ccccc2)nc1-c1ccc(-c2ccccc2)cc1 is higher in melting point: 62 to 64 °C for the first, 255 to 257 °C for the second.

First: COc1ccc(CCCC(=O)O)cc1F
Second: COCCOc1ccc(C(C)=O)cc1OC
The melting point of the first is lower: 63 to 65 °C for the first, 85 to 87 °C for the second.

Compared with Clc1ccc2ccc(Cl)c(Cl)c2n1, O=C(O)C(F)(F)c1ccc(Cl)c(Cl)c1 is lower in melting point: 123 to 125 °C for the first, 109 to 111 °C for the second.

First: Nc1ccccc1-c1ncc[nH]1
Second: NC(=O)c1cccc2cccnc12
The melting point of the first is lower: 132 to 134 °C for the first, 168 to 170 °C for the second.

Compared with CSCCC(NC(=O)COc1ccccc1)C(=O)O (stereo not given), CCC(C)C(C(=O)O)c1ccccc1 (stereo not given) is lower in melting point: 122 to 130 °C for the first, 50 to 52 °C for the second.

First: CC(C)c1nnc(NC(=O)OCC(F)(F)F)s1
Second: Cc1nnc(NC(=O)CCl)s1
The melting point of the first is lower: 189 to 191 °C for the first, 230 to 232 °C for the second.

First: CCc1c(C(=O)O)cnn1-c1ccc(Br)cc1
Second: O=C(O)c1ccccc1OCc1ccc(Br)cc1
The melting point of the first is higher: 209 to 211 °C for the first, 119 to 121 °C for the second.

First: O=C(Nc1nccs1)C1CCNCC1
Second: Cc1csc(NC(=O)C2CCCNC2)n1 (stereo not given)
The melting point of the first is higher: 196 to 198 °C for the first, 164 to 166 °C for the second.

Compared with NCc1cc(=O)n2ccccc2n1, CCc1cc(Cl)nc(-c2ccccn2)n1 is lower in melting point: 123 to 125 °C for the first, 79 to 81 °C for the second.

First: Nc1nc(CCl)nc(Nc2ccccc2)n1
Second: O=c1c2cnn(-c3ccccc3)c2nnn1CCl
The melting point of the first is lower: 139 to 141 °C for the first, 179 to 181 °C for the second.

Compared with Cc1ccc(-c2nc(-c3ccccc3)sc2CC(=O)O)cc1, O=C(O)c1ccc(CSc2ccccc2)cc1 is higher in melting point: 165 to 167 °C for the first, 179 to 181 °C for the second.

Compared with O=C(O)c1cc(F)c(F)cc1Br, CS(=O)(=O)c1cc(Br)cc(C(=O)O)c1F is higher in melting point: 118 to 122 °C for the first, 209 to 211 °C for the second.

First: CC(Cl)C(=O)Nc1sc2c(c1C#N)CCC2 (stereo not given)
Second: O=c1[nH]c2c(s1)CCC2
The melting point of the first is higher: 204 to 206 °C for the first, 142 to 144 °C for the second.

Compared with CCOc1ccc(S(=O)(=O)Cl)c2ccccc12, CCOC(=O)CS(=O)(=O)c1ccc(Br)cc1 is lower in melting point: 98 to 100 °C for the first, 45 to 47 °C for the second.

Compared with CCN(CC)S(=O)(=O)c1ccc(Oc2ccc(C=O)cc2OC)c([N+](=O)[O-])c1, O=[N+]([O-])c1ccc(S(=O)(=O)C(F)(F)F)cc1 is lower in melting point: 134 to 136 °C for the first, 81 to 83 °C for the second.

First: O=C(O)c1c[nH]c2ccc([N+](=O)[O-])cc12
Second: O=C(O)c1cc(=O)[nH]c2cc(F)ccc12
The melting point of the first is lower: 255 to 257 °C for the first, 323 to 325 °C for the second.

Compared with Cc1nc(-c2ccncc2)[nH]c(=O)c1CC(=O)O, Cc1csc(-c2ccc(C(=O)O)cc2)n1 is lower in melting point: 252 to 254 °C for the first, 208 to 210 °C for the second.

First: Cn1ccc(N2CCC(N)C2=O)n1 (stereo not given)
Second: Cn1ccnc(N)c1=O
The melting point of the first is lower: 141 to 143 °C for the first, 162 to 164 °C for the second.

First: CNc1cc(NC)c([N+](=O)[O-])cc1F
Second: Cc1c[nH]c(=O)n1-c1ccccc1[N+](=O)[O-]
The melting point of the first is lower: 185 to 187 °C for the first, 209 to 211 °C for the second.

First: CN1CCN(C(=O)C2CNc3ccccc3O2)CC1 (stereo not given)
Second: CC(C)(C)OC(=O)N1CCC(OC(=O)c2ccccc2N)CC1
The melting point of the first is higher: 132 to 134 °C for the first, 120 to 122 °C for the second.

Compared with COCCOc1cccc(CNC(=O)CCl)c1, O=C(CCl)NCC(=O)c1cccs1 is higher in melting point: 90 to 92 °C for the first, 133 to 135 °C for the second.

First: Nc1nncc(-c2ccccc2OC(F)F)n1
Second: Oc1nc(-c2ccccc2Cl)no1
The melting point of the first is lower: 159 to 161 °C for the first, 161 to 163 °C for the second.

Compared with CC(C)(C)OC(=O)c1cccc(C=O)c1, CCOC(=O)c1cnc2ccc(C)cc2c1Cl is higher in melting point: 31 to 33 °C for the first, 62 to 64 °C for the second.

Compared with ClCc1nnc(-c2ccco2)o1, Sc1nnc(-c2ccc[nH]2)o1 is higher in melting point: 81 to 83 °C for the first, 205 to 207 °C for the second.

First: c1cc(C2CCCNC2)[nH]n1 (stereo not given)
Second: O=[N+]([O-])c1cccc2c1CCN2
The melting point of the first is lower: 74 to 76 °C for the first, 111 to 113 °C for the second.

First: CCS(=O)(=O)Nc1nc2ccc(N)cc2s1
Second: CCC(C)NC(=O)c1ccc(N)c(C)c1 (stereo not given)
The melting point of the first is higher: 217 to 219 °C for the first, 123 to 125 °C for the second.

First: CC1COCCN1c1ccc(N)cc1 (stereo not given)
Second: Clc1ccc(OCC2CO2)cc1 (stereo not given)
The melting point of the first is higher: 89 to 91 °C for the first, 31 to 33 °C for the second.

First: CC(=O)Nc1ccc(S(=O)(=O)NCc2ccc(C(=O)O)cc2)cc1
Second: CC(=O)Nc1ccc(S(=O)(=O)N2CCC(=NO)CC2)cc1
The melting point of the first is higher: 269 to 271 °C for the first, 200 to 202 °C for the second.

Compared with N#CCOc1ccc(CCl)cc1, COc1ccc(-c2nc(CO)cs2)cc1 is higher in melting point: 63 to 65 °C for the first, 74 to 76 °C for the second.

First: CCOC(=O)c1nnc(N)s1
Second: CCOC(=O)c1[nH]cnc1N
The melting point of the first is higher: 197 to 199 °C for the first, 129 to 131 °C for the second.

Compared with O=C1CN(C(=O)CCl)CCN1, N#CC1(N2CCN(C(=O)CCl)CC2)CCCCC1 is lower in melting point: 124 to 126 °C for the first, 97 to 99 °C for the second.

First: CCOC(=O)c1cc2c(F)cc(Br)cc2[nH]1
Second: CCc1nc(C(=O)O)nn1-c1c(Cl)cccc1Cl
The melting point of the first is lower: 194 to 196 °C for the first, 197 to 199 °C for the second.

Compared with Nc1nnc(-c2ccc(Cl)cc2)o1, Clc1ccc(-c2nnc(CNC3CC3)o2)cc1 is lower in melting point: 260 to 262 °C for the first, 104 to 106 °C for the second.

Compared with CCC1CCC2(CC1)NC(=O)NC2=O (stereo not given), CCCCn1nc(C(=O)O)ccc1=O is lower in melting point: 230 to 232 °C for the first, 119 to 121 °C for the second.

First: O=C(NO)c1ccc(Cl)cc1
Second: O=C(NCc1ccc(Cl)cc1)n1ccnc1
The melting point of the first is higher: 170 to 172 °C for the first, 94 to 96 °C for the second.

First: O=C(O)c1ccnc(Cl)c1[N+](=O)[O-]
Second: Cc1ccnc(-n2cc(S(=O)(=O)Cl)cn2)c1
The melting point of the first is higher: 222 to 224 °C for the first, 104 to 106 °C for the second.

First: COc1cc(C#N)ccc1CBr
Second: N#Cc1ccc(F)c(F)c1N
The melting point of the first is lower: 89 to 91 °C for the first, 92 to 94 °C for the second.

First: NNC(=S)NC1CC1
Second: O=C(O)C1CCN(S(=O)(=O)c2ccc3c(c2)OCCCO3)CC1
The melting point of the first is lower: 100 to 102 °C for the first, 173 to 178 °C for the second.

Compared with Cc1cc(C(F)(F)F)c2c(C)c(C(=O)O)sc2n1, Clc1ccc(SCc2nc(Cl)c3c4c(sc3n2)CCC4)cc1 is lower in melting point: 259 to 261 °C for the first, 71 to 75 °C for the second.

First: Clc1nc(CN2CCCCC2)nc2scc(-c3ccccc3)c12
Second: Nc1ccccc1CN1CCSCC1
The melting point of the first is higher: 79 to 81 °C for the first, 72 to 74 °C for the second.

First: O=C(O)C1=CC=CN2CCS(=O)(=O)N=C12
Second: CN(C)C1=CC(=C(N)N=O)C=CN1
The melting point of the first is higher: 313 to 315 °C for the first, 129 to 131 °C for the second.
